One test concerns SK-HEP-1 cells. The experiment in a line: Cell viability (Celltiter-Glo), lenvatinib in combination with bicistronic ZF9-MQ1_ZF3-KRAB DS; Bliss synergy (SynergyFinder 2.0). To be noted: Homo sapiens, SK-HEP1, 72 h. The format is cell-based. Here is the method: (§1) […] Cell viability (Celltiter-Glo) levels were assessed 72 hours after treatment. Bliss synergy scores calculated using SyngeryFinder 2.0 were used to determine combinatorial effect.
(§2) Bliss synergy scores calculated using SynergyFinder 2.0 were used to determine combinatorial effect. The degree of combination synergy, or antagonism, is quantified by comparing the observed drug combination response against the expected response, calculated using a reference model that assumes no interaction between drugs. The Bliss independence model assumes a stochastic process in which two drugs elicit their effects independently, and the expected combination effect can be calculated based on the probability of independent events. […] Bliss synergy scores plus lenvatinib for Hep 3B and SK-HEP-1 were 5.37 and 12.77.

The test system of a further test is Hep 3B cells. The test is described as above. The conditions noted are these: Homo sapiens, Hep3B, 72 h. The format is cell-based. How it is done: as §1, §2
Test [1] has as its system MYC protein in osimertinib-resistant cell lines derived from H1975 (OsimR_1.25 and OsimR_1.5). The test can be described thus: MYC protein level by JESS system. The format is cell-based. The conditions noted are these: osimertinib resistant H1975 cells, 48 hours, 1 μM osimertinib or 1 μg/ml MR-32380 in SSOP. The text has this: (§3) MYC protein levels were assess using a JESS system (Protein Simple). A 12-230 kDa pre-filled plate (Protein Simple) was loaded with protein lysate, antibody mix (MYC: Cell signaling technologies, actin: Cell signaling technologies, Goat anti-rabbit of mouse secondary antibodies conjugated with HRP, or fluorescent marker), and luminol master mix. The loaded plate and capillary cartridge (Protein Simple) were then transferred to the JESS system (Protein Simple) for imaging and quantification following manufacturer's protocol.

Test [2] concerns MYC protein in H1975 parental cells. The experiment in a line: MYC protein level by JESS system. The format is cell-based. To be noted: 48 hours, 1 μM osimertinib or 1 μg/ml MR-32380 in SSOP.
Text: as §3

Test [3] deals with osimertinib-resistant cell lines derived from H1975 (OsimR_1.25 and OsimR_1.5). The test can be described thus: Cell viability (CellTiter Glo) after osimertinib or MR-32380 in osimertinib-resistant lines. The format is cell-based. To be noted: OsimR_1.25 and OsimR_1.5, 72 hours, increasing doses. How it is done:
Cell viability was assessed using the CellTiter Glo (Promega) assay used according to manufacturer's instructions.
On the technique in general: Cellular ATP, detected with luciferase, serves as a proxy for viable cell number.

The next test has as its system PC9 cells. The test can be described thus: Cell viability (CellTiter Glo), osimertinib with control or MR-32054. The format is cell-based. To be noted: Homo sapiens, PC-9, 72 h; read-out: IC50, reduction of viability. The text has this: (§4) The CellTiter Glo (Promega) assay was used according to manufacturer's instructions to assess cell viability. […] Odyssey CLx Imaging System (LICOR) using near-infrared (NIR) fluorescence was used to capture and quantify the protein images.

Another test relates to Myc protein in PC9 cells. The experiment in a line: Myc protein by Western blot, osimertinib and/or MR-32054. The format is cell-based. The conditions noted are these: PC9, 48 h, 1 μM osimertinib and/or 0.5 μg/ml MR-32054 in SSOP LNPs, normalized to untreated. (In general: A western blot detects proteins with antibodies after separation by electrophoresis.)
Test [4] deals with subcutaneous H1975 tumors with sensitizing EGFR mutations (L858R, T790M). The experiment in a line: H1975 subcutaneous tumor model, tumor growth. Details: species or system mice. To be noted: mouse, in vivo. Here is the method:
Tumor growth was measured throughout the experiment (FIG. 15).
The length and width of tumors were measured three times weekly. Tumor volumes were calculated as width^2×length/2. Body weights were measured daily.

The next test concerns H1975 cells. The test can be described thus: cells. The conditions noted are these: Homo sapiens, NCI-H1975, 72 h, read-out: IC50, growth inhibition (cell viability).
Text: as §4

The values below come from patent US20260256782A1, “COMBINATION THERAPIES COMPRISING MYC MODULATION” (FLAGSHIP PIONEERING INNOVATIONS V, INC., priority 2022, published 2026).

Read-outs that look alike come from different tables or passages of the source.

Regarding `COc1cc2nccc(Oc3ccc(NC(=O)NC4CC4)c(Cl)c3)c2cc1C(N)=O` [lenvatinib], the IC50 in the test on SK-HEP-1 cells (SK-HEP-1, 72 hours, lenvatinib without DS, read-out: IC50 of lenvatinib) came out at 17700 nM; in the test on SK-HEP-1 cells (SK-HEP-1, ZF9-MQ1_ZF3-KRAB concentration 0 μg/mL, cell viability 72 hours after treatment, read-out: Lenvatinib IC50) it was 17700 nM; in the test on SK-HEP-1 cells (SK-HEP-1, ZF9-MQ1_ZF3-KRAB concentration 0.1 μg/mL, cell viability 72 hours after treatment, read-out: Lenvatinib IC50) it was 13300 nM; with SK-HEP-1 cells (SK-HEP-1, ZF9-MQ1_ZF3-KRAB concentration 0.6 μg/mL, cell viability 72 hours after treatment, read-out: Lenvatinib IC50), 3860 nM; with SK-HEP-1 cells (SK-HEP-1, ZF9-MQ1_ZF3-KRAB concentration 1.0 μg/mL, cell viability 72 hours after treatment, read-out: Lenvatinib IC50), 1910 nM; in the test with Hep 3B cells (ZF9-MQ1_ZF3-KRAB concentration 0 μg/mL, cell viability 72 hours after treatment, read-out: Lenvatinib IC50) it was 533 nM. In addition, the IC50 was 309 nM in the test with Hep 3B cells (ZF9-MQ1_ZF3-KRAB concentration 0.06 μg/mL, cell viability 72 hours after treatment, read-out: Lenvatinib IC50); 23 nM with Hep 3B cells (ZF9-MQ1_ZF3-KRAB concentration 0.6 μg/mL, cell viability 72 hours after treatment, read-out: Lenvatinib IC50); 48 nM in the test with Hep 3B cells (ZF9-MQ1_ZF3-KRAB concentration 1.0 μg/mL, cell viability 72 hours after treatment, read-out: Lenvatinib IC50); 533 nM in the test with Hep 3B cells (lenvatinib without DS, read-out: half maximal inhibitory concentration (IC50) of lenvatinib).

With `C=CC(=O)Nc1cc(Nc2nccc(-c3cn(C)c4ccccc34)n2)c(OC)cc1N(C)CCN(C)C` [osimertinib], the MYC protein level result is “not affected” in [1] and “decreased MYC protein level” in [2]. Besides, the “cell viability (sensitivity)” value in test [3] is listed as “resistant to osimertinib”. Moreover, the IC50 in the test on PC9 cells turned out to be 420 nM. Besides, the “reduction of Myc protein levels” value in the test with Myc protein in PC9 cells amounted to 80%. The “tumor growth (tumor volume)” value in [4] was “inhibit tumor growth”.

Take `CC(=O)Nc1cccc(-n2c(=O)n(C3CC3)c(=O)c3c(Nc4ccc(I)cc4F)n(C)c(=O)c(C)c32)c1` [trametinib]: in the test on H1975 cells, the IC50 worked out at 140 nM.
